Results on nine compounds are retold here after US10233188B2, “CDK2/4/6 inhibitors” (priority 2016, dated 2019).

One may read the Ki as a measure of affinity in units of concentration, obtained from inhibition or displacement. Low readings indicate higher affinity, high ones lower affinity.

One assay concerns the target CDK2/Cyclin E1 (Homo sapiens (Human), UniProt P24941). Put plainly: biochemical. As to conditions: CDK2_Ki (nM), phosphorylated CDK2/Cyclin E1, 150 μM ATP, Morrison tight-binding fit.
The target of another assay is CDK6/Cyclin D1 (Homo sapiens (Human), UniProt Q00534). Description: biochemical. As to conditions: CDK6_Ki (nM), non-phosphorylated CDK6/Cyclin D1, 2 mM ATP, Morrison fit.
Chain of CDK6/Cyclin D1 (Q00534 whole entry): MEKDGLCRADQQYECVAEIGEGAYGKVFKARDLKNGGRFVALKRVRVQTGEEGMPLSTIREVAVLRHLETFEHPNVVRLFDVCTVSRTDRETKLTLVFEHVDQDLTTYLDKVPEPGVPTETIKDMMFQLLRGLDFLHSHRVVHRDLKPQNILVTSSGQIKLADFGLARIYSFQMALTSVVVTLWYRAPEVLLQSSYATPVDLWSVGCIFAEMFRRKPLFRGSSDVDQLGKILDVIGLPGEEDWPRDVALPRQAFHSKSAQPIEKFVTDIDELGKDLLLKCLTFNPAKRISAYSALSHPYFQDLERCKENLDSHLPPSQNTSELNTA
Chain of CDK6/Cyclin D1 (P24385 whole entry partner): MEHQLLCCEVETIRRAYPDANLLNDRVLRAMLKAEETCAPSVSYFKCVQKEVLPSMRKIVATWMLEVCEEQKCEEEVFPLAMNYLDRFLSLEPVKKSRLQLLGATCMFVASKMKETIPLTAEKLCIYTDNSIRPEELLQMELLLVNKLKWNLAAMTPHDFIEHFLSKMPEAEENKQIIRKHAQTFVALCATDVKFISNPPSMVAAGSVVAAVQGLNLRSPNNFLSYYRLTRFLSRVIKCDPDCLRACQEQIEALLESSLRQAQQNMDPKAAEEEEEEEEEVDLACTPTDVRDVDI

Experimental for CDK2/Cyclin E1: The assay was initiated with the addition of ATP, following a fifteen minutes pre-incubation of enzyme and inhibitor at room temperature in the reaction mixture. The reaction was stopped after 45 minutes at room temperature by the addition of 50 μL of 80 mM EDTA, pH 7.5.

For the compound `Cc1cc2cnc(NC3CCN(S(=O)(=O)C4CC4)CC3)nc2n([C@@H]2CCC[C@@]2(C)O)c1=O` (single isomer, unassigned) [Example 112, (−)-2-{[1-(cyclopropylsulfonyl)piperidin-4-yl]amino}-8-[(1R*,2R*)-2-hydroxy-2-methylcyclopentyl]-6-methylpyrido[2,3-d]pyrimidin-7(8H)-one], the Ki at CDK2/Cyclin E1 was 0.12 nM; at CDK6/Cyclin D1, 1.24 nM.
For `Cc1cc2cnc(NC3CCN(S(=O)(=O)C4CC4)CC3)nc2n([C@H]2CCC[C@]2(C)O)c1=O` (single isomer, unassigned) [Example 113, (+)-2-{[1-(cyclopropylsulfonyl)piperidin-4-yl]amino}-8-[(1R*,2R*)-2-hydroxy-2-methylcyclopentyl]-6-methylpyrido[2,3-d]pyrimidin-7(8H)-one] the same measures were 1.99 nM and 4.15 nM.
Taken in the same sequence, the figures for `COCCS(=O)(=O)N1CCC(Nc2ncc3cc(C)c(=O)n([C@@H]4CCC[C@@]4(C)O)c3n2)CC1` (single isomer, unassigned) [Example 114, (−)-8-[(1R*,2R*)-2-hydroxy-2-methylcyclopentyl]-2-({1-[(2-methoxyethyl)sulfonyl]piperidin-4-yl}amino)-6-methylpyrido[2,3-d]pyrimidin-7(8H)-one] were 0.17 nM and 0.15 nM.
For `COCCS(=O)(=O)N1CCC(Nc2ncc3cc(C)c(=O)n([C@H]4CCC[C@]4(C)O)c3n2)CC1` (single isomer, unassigned) [Example 115, (+)-8-[(1R*,2R*)-2-hydroxy-2-methylcyclopentyl]-2-({1-[(2-methoxyethyl)sulfonyl]piperidin-4-yl}amino)-6-methylpyrido[2,3-d]pyrimidin-7(8H)-one] the same measures were 2.39 nM and 3.17 nM.
As for `Cc1cc2cnc(NC3CCN(S(=O)(=O)CC4CC4)CC3)nc2n([C@@H]2CCC[C@@]2(C)O)c1=O` (single isomer, unassigned) [Example 116, (−)-2-({1-[(cyclopropylmethyl)sulfonyl]piperidin-4-yl}amino)-8-[(1R*,2R*)-2-hydroxy-2-methylcyclopentyl]-6-methylpyrido[2,3-d]pyrimidin-7(8H)-one], the inhibition constant (Ki) at CDK2/Cyclin E1 turned out to be 0.15 nM; at CDK6/Cyclin D1, 0.21 nM.
For `Cc1cc2cnc(NC3CCN(S(=O)(=O)CC4CC4)CC3)nc2n([C@H]2CCC[C@]2(C)O)c1=O` (single isomer, unassigned) [Example 117, (+)-2-({1-[(cyclopropylmethyl)sulfonyl]piperidin-4-yl}amino)-8-[(1R*,2R*)-2-hydroxy-2-methylcyclopentyl]-6-methylpyrido[2,3-d]pyrimidin-7(8H)-one] the same measures were 1.74 nM and 2.46 nM.
Taken in the same sequence, the figures for `Cc1cc2cnc(NC3CCN(S(=O)(=O)CC(F)(F)F)CC3)nc2n([C@@H]2CCC[C@@]2(C)O)c1=O` (single isomer, unassigned) [Example 118, (−)-8-[(1R*,2R*)-2-hydroxy-2-methylcyclopentyl]-6-methyl-2-({1-[(2,2,2-trifluoroethyl)sulfonyl]piperidin-4-yl}amino)pyrido[2,3-d]pyrimidin-7(8H)-one] were 0.34 nM and 4.36 nM.
As for `Cc1cc2cnc(NC3CCN(S(=O)(=O)CC(F)(F)F)CC3)nc2n([C@H]2CCC[C@]2(C)O)c1=O` (single isomer, unassigned) [Example 119, (+)-8-[(1R*,2R*)-2-hydroxy-2-methylcyclopentyl]-6-methyl-2-({1-[(2,2,2-trifluoroethyl)sulfonyl]piperidin-4-yl}amino)pyrido[2,3-d]pyrimidin-7(8H)-one], the figures for the Ki on CDK2/Cyclin E1 and at CDK6/Cyclin D1 were 2.87 nM and 4.15 nM, respectively.
For `C[C@]1(O)CCC[C@@H]1n1c(=O)c(CC#N)cc2cnc(NC3CCN(S(C)(=O)=O)CC3)nc21` (single isomer, unassigned) [Example 121, (+)-(8-[(1R*,2R*)-2-hydroxy-2-methylcyclopentyl]-2-{[1-(methylsulfonyl)piperidin-4-yl]amino}-7-oxo-7,8-dihydropyrido[2,3-d]pyrimidin-6-yl)acetonitrile] the same measures were 2.15 nM and 0.82 nM.
